Laboratory results published in patent publication US7964647B2 (Mutual Pharmaceutical Company, Inc., priority 2007, dated 2011).

How the values were obtained:
clinical = settings: human, plasma, oral, 1.8 mg, N = 13; for Cmax: low-dose regimen 1.8 mg (2 x 0.6 mg, then 0.6 mg 1 hour later), fasting healthy adults; for Tmax / half-life: low-dose regimen 1.8 mg, healthy adults; for Tmax: time after the initial dose
Description: This study was a single-center, single-period, open-label pharmacokinetic study conducted in healthy subjects under fasting conditions.
Subjects received 2×0.6 mg tablets initially followed by 1×0.6 mg tablet 1 hour later.

[1] = tested on: patients with acute gout flare (acute gouty arthritic attack); assay: Same acute gout flare study: safety (treatment emergent adverse events); assay type: in vivo, human
Text: A sufficient number of patients are screened to enroll and randomize 300 patients (100 patients per treatment group) who meet the criteria of the American College of Rheumatology (ACR) for acute arthritis of gout. […] Secondary objectives of the study are to compare low-dose and standard-dose dosing regimens of colchicine with respect to pain, time to response and complete pain relief, interference with sleep, and signs and symptoms of inflammation and to determine the safety of colchicine when administered in the two different dosing regimens.
Safety assessments will be made based on patient and Investigator inputs. Patients will be initially screened in the clinic for inclusion by review of medical history and concomitant medication use, physical examination, measurement of vital signs (oral temperature, sitting radial or brachial pulse rate, respiratory rate, and sitting blood pressure), body weight, and clinical laboratory testing (serum biochemistry, complete blood count, and urinalysis). After randomization, clinical laboratory tests, concomitant medication use, medical history and current complaints (AE) will be reviewed every 3 months until an acute gout flare occurs in order to ensure continued eligibility. Compliance with key inclusion/exclusion criteria (based on intervening medical history and concomitant medication use) will be re confirmed by the Gout Flare Call Center prior to authorizing the start of study drug. Following the start of study drug, patients will record any severe gastrointestinal AEs on their diaries and these will be recorded in the Case Report Form (CRF) at each clinic visit. Full physical examinations and clinical laboratory testing will be conducted at the final clinic visit (Visit 4 or Visit 5). Vital signs and body weight will be measured at each Post Flare visit (Visit 3 and 4 or 5). For those patients in whom there is an unresolved AE or clinically significant treatment emergent laboratory abnormality, there will be one additional follow up visit 14 days post flare onset (Visit 6).
Safety analysis will be performed by coding adverse events using a standardized medical dictionary and the incidence summarized by treatment group; tabulations will be prepared of all AEs as well as by relationship and by severity. Adverse events resulting in termination and events meeting regulatory criteria for seriousness will also be tabulated separately. Descriptive statistics (mean, median, standard deviation, and range) of clinical laboratory testing results and vital sign measurements will be generated for each treatment group and change from the most recent value prior to onset of the acute gout flare calculated; no inferential testing will be performed. Treatment emergent abnormalities on physical examination will be tabulated and listed by treatment group. By patient listings of all safety data and concomitant medication use will be generated.

[2] = Pharmacokinetic study of standard-dose acute gout regimen 4.8 mg over 6 hours (Example 6); settings: for Cmax / Tmax / half-life: human, in vivo, 4.8 mg
Description: This study was a single center, randomized, double-blind, double-dummy pharmacokinetic and exploratory ECG safety study.
Those randomized to moxifloxacin received 1×400 mg tablet.

[3] = standard-dose regimen 4.8 mg over 6 hours, healthy adults, N = 15
[4] = standard-dose regimen 4.8 mg over 6 hours, time after the initial dose, healthy adults, N = 15

**Q.** What does the source list for `COc1cc2c(c(OC)c1OC)-c1ccc(OC)c(=O)cc1[C@@H](NC(C)=O)CC2` [Colchicine, (−)-N-[(7S,12aS)-1,2,3,10-tetramethoxy-9-oxo-5,6,7,9-tetrahydrobenzo[a]heptalen-7-yl]-acetamide]?
**A.** Cmax (clinical; MEAN): 6.19 ng/mL; Cmax (clinical; MEDIAN): 5.68 ng/mL; Tmax (clinical; MEAN): 1.81 h; Tmax (clinical; MEDIAN): 2 h; half-life (clinical; t1/2, MEAN): 23.6 h; half-life (clinical; t1/2, MEDIAN): 21.6 h; Patients with severe TEAE: Gout ([1]; All colchicine, N = 126): 0 n; Patients with severe TEAE: Metabolism and Nutrition Disorders ([1]; All colchicine, N = 126): 0 n; Number (%) of patients with a TEAE discontinuing study ([1]; High dose 4.8 mg, N = 52): 0 n (%); Number (%) of patients with a treatment emergent SAE ([1]; High dose 4.8 mg, N = 52): 0 n (%); Number (%) of patients with at least one TEAE ([1]; High dose 4.8 mg, N = 52): 40 (76.9) n (%); Number (%) of patients with at least one mild TEAE ([1]; High dose 4.8 mg, N = 52): 15 (28.8) n (%); Number (%) of patients with at least one moderate TEAE ([1]; High dose 4.8 mg, N = 52): 15 (28.8) n (%); Number (%) of patients with at least one severe TEAE ([1]; High dose 4.8 mg, N = 52): 10 (19.2) n (%); Total number of TEAEs ([1]; High dose 4.8 mg, N = 52, safety population): 85; Patients with at least one drug-related TEAE ([1]; High dose, N = 52): 38 (73.1) n (%); Patients with drug-related TEAE: Diarrhea ([1]; High dose, N = 52): 38 (73.1) n (%); Patients with drug-related TEAE: Gastro-intestinal Disorders ([1]; High dose, N = 52): 38 (73.1) n (%); Patients with drug-related TEAE: Nausea ([1]; High dose, N = 52): 7 (13.5) n (%); Patients with drug-related TEAE: Vomiting ([1]; High dose, N = 52): 8 (15.4) n (%); Patients with severe TEAE: Diarrhea ([1]; High dose, N = 52): 19.2%; Patients with severe TEAE: Gout ([1]; High dose, N = 52): 0 n; Patients with severe TEAE: Metabolism and Nutrition Disorders ([1]; High dose, N = 52): 0 n; Number (%) of patients with a TEAE discontinuing study ([1]; Low dose 1.8 mg, N = 74): 0 n (%); Number (%) of patients with a treatment emergent SAE ([1]; Low dose 1.8 mg, N = 74): 0 n (%); Number (%) of patients with at least one TEAE ([1]; Low dose 1.8 mg, N = 74): 27 (36.5) n (%); Number (%) of patients with at least one mild TEAE ([1]; Low dose 1.8 mg, N = 74): 19 (25.7) n (%); Number (%) of patients with at least one moderate TEAE ([1]; Low dose 1.8 mg, N = 74): 8 (10.8) n (%); Number (%) of patients with at least one severe TEAE ([1]; Low dose 1.8 mg, N = 74): 0 n (%); Number (%) of patients with at least one treatment-emergent gastrointestinal AE, captured on Adverse Event CRF, All ([1]; Low dose 1.8 mg, N = 74): 19 (25.7) Number (%); Number (%) of patients with at least one treatment-emergent gastrointestinal AE, captured on Adverse Event CRF, Severe ([1]; Low dose 1.8 mg, N = 74): 0 Number (%); Number (%) of patients with at least one treatment-emergent gastrointestinal AE, captured on Patient Diary or Adverse Event CRF, All ([1]; Low dose 1.8 mg, N = 74): 33 (44.6) Number (%); Number (%) of patients with at least one treatment-emergent gastrointestinal AE, captured on Patient Diary or Adverse Event CRF, Severe ([1]; Low dose 1.8 mg, N = 74): 3 (4.1) Number (%); Number (%) of patients with at least one treatment-emergent gastrointestinal AE, captured on Patient Diary, Severe ([1]; Low dose 1.8 mg, N = 74): 3 (4.1) Number (%); Total number of TEAEs ([1]; Low dose 1.8 mg, N = 74, safety population): 34; Patients with at least one severe TEAE (any) ([1]; Low dose, N = 74): 0 n; Patients with drug-related TEAE: Diarrhea ([1]; Low dose, N = 74): 21.6%; Patients with drug-related TEAE: Gastro-intestinal Disorders ([1]; Low dose, N = 74): 24.3%; Patients with drug-related TEAE: Vomiting ([1]; Low dose, N = 74): 0 n; Patients with severe TEAE: Diarrhea ([1]; Low dose, N = 74): 0 n; Patients with severe TEAE: Gastrointestinal Disorders ([1]; Low dose, N = 74): 0 n; Patients with severe TEAE: Gout ([1]; Low dose, N = 74): 0 n; Patients with severe TEAE: Melaena ([1]; Low dose, N = 74): 0 n; Patients with severe TEAE: Metabolism and Nutrition Disorders ([1]; Low dose, N = 74): 0 n; Patients with severe TEAE: Musculoskeletal and Connective Tissue Disorders ([1]; Low dose, N = 74): 0 n; Patients with severe TEAE: Nausea ([1]; Low dose, N = 74): 0 n; Patients with severe TEAE: Pain in Extremity ([1]; Low dose, N = 74): 0 n; Number (%) of patients with at least one treatment-emergent gastrointestinal AE, captured on Adverse Event CRF, All ([1]; Standard dose 4.8 mg, N = 52): 40 (76.9)^2 Number (%); Number (%) of patients with at least one treatment-emergent gastrointestinal AE, captured on Adverse Event CRF, Severe ([1]; Standard dose 4.8 mg, N = 52): 10 (19.2) Number (%); Number (%) of patients with at least one treatment-emergent gastrointestinal AE, captured on Patient Diary or Adverse Event CRF, All ([1]; Standard dose 4.8 mg, N = 52): 49 (94.2)^2 Number (%); Number (%) of patients with at least one treatment-emergent gastrointestinal AE, captured on Patient Diary or Adverse Event CRF, Severe ([1]; Standard dose 4.8 mg, N = 52): 18 (34.6) Number (%); Number (%) of patients with at least one treatment-emergent gastrointestinal AE, captured on Patient Diary, All ([1]; Standard dose 4.8 mg, N = 52): 48 (92.3)^2 Number (%); Number (%) of patients with at least one treatment-emergent gastrointestinal AE, captured on Patient Diary, Severe ([1]; Standard dose 4.8 mg, N = 52): 13 (25.0) Number (%); Proportion of patients with vomiting ([1]; high-dose 4.8 mg): 15.4%; Occurrence of severe diarrhea ([1]; low-dose group 1.8 mg): not occurring; Occurrence of vomiting ([1]; low-dose group 1.8 mg): not occurring; Proportion of patients with diarrhea ([1]; standard dose 4.8 mg): 73.1%; Proportion of patients with gastrointestinal side effects ([1]; standard dose 4.8 mg): 73.1%; Cmax ([2]; MEAN, standard-dose regimen 4.8 mg over 6 hours, healthy adults, N = 15): 6.8 ng/mL; Cmax ([2]; MEDIAN, standard-dose regimen 4.8 mg over 6 hours, healthy adults, N = 15): 6.69 ng/mL; Tmax ([2]; MEAN, standard-dose regimen 4.8 mg over 6 hours, time after the initial dose, healthy adults, N = 15): ~4.5 h; Tmax ([2]; MEDIAN, standard-dose regimen 4.8 mg over 6 hours, time after the initial dose, healthy adults, N = 15): 3.12 h; half-life ([2]; t1/2, MEAN, standard-dose regimen 4.8 mg over 6 hours, healthy adults, N = 15): 31.4 h; half-life ([2]; t1/2, MEDIAN, standard-dose regimen 4.8 mg over 6 hours, healthy adults, N = 15): 32.8 h; CL/F, MAX [2, 3]: 78287.41 mL/h; CL/F, MEAN [2, 3]: 43168.87 mL/h; CL/F, MEDIAN [2, 3]: 37954.71 mL/h; CL/F, MIN [2, 3]: 31386.01 mL/h; Cmax, MAX [2, 3]: 8.60 ng/mL; Cmax, MEAN [2, 3]: 6.84 ng/mL; Cmax, MIN [2, 3]: 4.95 ng/mL; Kel, MAX [2, 3]: 0.0461 h⁻¹; Kel, MEAN [2, 3]: 0.0242 h⁻¹; Kel, MEDIAN [2, 3]: 0.0212 h⁻¹; Kel, MIN [2, 3]: 0.0147 h⁻¹; Total AUC0-t, MAX [2, 3]: 138.24 ng·h/mL; Total AUC0-t, MEAN [2, 3]: 104.95 ng·h/mL; Total AUC0-t, MEDIAN [2, 3]: 113.12 ng·h/mL; Total AUC0-t, MIN [2, 3]: 53.74 ng·h/mL; Total AUC∞, MAX [2, 3]: 152.93 ng·h/mL; Total AUC∞, MEAN [2, 3]: 118.20 ng·h/mL; Total AUC∞, MEDIAN [2, 3]: 126.47 ng·h/mL; Total AUC∞, MIN [2, 3]: 61.31 ng·h/mL; Varea/F, MAX [2, 3]: 2639.21 L; Varea/F, MEAN [2, 3]: 1876.09 L; Varea/F, MEDIAN [2, 3]: 1902.14 L; Varea/F, MIN [2, 3]: 805.92 L; t1/2, MAX [2, 3]: 47.22 h; t1/2, MIN [2, 3]: 15.03 h; Tmax, MAX [2, 4]: 7.50 h; Tmax, MEAN [2, 4]: 4.47 h; Subjects with a secondary peak within 6 hours ([2]; standard-dose regimen 4.8 mg, 13 of 15 subjects): 87%
